Source: patent US20200163854A1, “LIFE-EXTENDING AGENT, ANTI-AGING AGENT, COSMETIC, AND FOOD/BEVERAGE COMPOSITION” (KYOTO UNIVERSITY, priority 2017, published 2020)
Read-outs that look alike come from different tables or passages of the source.

Assays:
[1] = system: Drosophila flies, premature aging strain (sod1[n1] mutants), male; conditions: vs control medium
Experimental: Mutants of adult Drosophila flies (male) containing Cu/Zn-SOD with reduced activity due to amino acid substitution (sod1[n1]) were bred in a plastic tube having a diameter of 25 mm, and fed with a simple medium (instant medium) for Drosophila that contains D-proline (D-Pro) at a concentration of 20, 60, 200, or 400 μg/ml, or L-proline (L-Pro) at a concentration of 400 μg/ml, followed by measuring the life span of the flies. […] For the control, a simple medium to which no D-Pro or L-Pro was added was used.
(§1) Mutants of adult Drosophila flies (male) containing Cu/Zn-SOD with reduced activity due to amino acid substitution (sod1[n1]) were bred in a plastic tube having a diameter of 25 mm, and fed with a simple medium (instant medium) for Drosophila that contains D-proline (D-Pro) at a concentration of 400 μg/ml, or D-aspartic acid (D-Asp) at a concentration of 60, 200, or 400 μg/ml, followed by measuring the life span of the flies. […] For the control, a simple medium to which no D-Pro or D-Asp was added was used.
as §1, with “D-hydroxyproline (D-HP)” for “D-aspartic acid (D-Asp)”, “D-HP” for “D-Asp”

[2] = system: Menin gene and Bach2 gene mRNA; conditions: 0.2 mg/ml in water, free intake, Day 495; compared to control group or L-proline group
Experimental: (§2) After euthanasia on Day 495, the spleen was removed and ground through a 0.45-μM strainer to prepare a suspension of spleen-derived cells (FIG. 4). After centrifugation at 1000 g for 5 minutes, the supernatant was removed by suction. Thereafter, 2 ml of ammonium chloride hemolytic agent (distilled water containing 8.99 mg/ml of NH4Cl, 1 mg/ml of KHCO3, and 37 μg/ml of EDTA4Na) was added to the cell pellets, followed by suspension. The resulting product was then allowed to stand at room temperature for 2 minutes. Subsequently, 10 ml of RPMI 1640 medium with 10% FBS was added thereto, the mixture was centrifuged at 1000 g for 5 minutes, and the supernatant was removed by suction. Then, 5 ml of RPMI 1640 medium with 10% FBS was added thereto to prepare a cell suspension (spleen-derived mononuclear cells).
Total RNA was extracted from 1×10^5 spleen-derived mononuclear cells of Example 4 using an RNeasy Mini Kit, produced by Qiagen. […] The mRNA levels of the Menin gene and the Bach2 gene were quantified as a ratio relative to the β-actin gene mRNA level, and calculated taking the value of the spleen-derived mononuclear cells of the control group as 1.

[3] = system: spleen-derived mononuclear cells (T cells with senescence marker); conditions: 0.2 mg/ml in water, free intake, Day 495; compared to control group or L-proline group
Experimental: as §2
After placing 1×10^6 spleen-derived mononuclear cells of Example 4 into a 1.5-ml Eppendorf tube, centrifugation was performed at 900 g for 5 minutes. Then, the supernatant was removed by suction, and 50 μl of FACS buffer (PBS(−) in which 0.5% BSA, 0.01% NaNO, and 1 mM EDTA were dissolved) was added thereto. Thereafter, incubation was performed on ice for 20 minutes with an FITC-labeled mouse anti-CD27 antibody (NOVUS; NPB-1-44021) and a PE-labeled mouse anti-CD62L antibody (ABGENT; ATB10190). […]

[4] = mixed with feed at 60, 200 or 400 μg/ml

Row | SMILES | life span of aging-promoting adult Drosophila flies ([1]; mixed with feed at 400 μg/ml) | life span of aging-promoting adult Drosophila flies [1, 4] | mRNA expression of the Bach2 gene (ratio to β-actin, control = 1) [2] | mRNA expression of the Menin gene (ratio to β-actin, control = 1) [2] | number of T cells with a senescence marker of CD62-negative or CD27-negative [3] | life span of aging-promoting adult Drosophila flies ([1]; mixed with feed at 20, 60, 200 or 400 μg/ml)
1 | O=C(O)[C@H]1C[C@H](O)CN1 [D-hydroxyproline] | extends the life span | extended the life span of Drosophila flies in a concentration-dependent manner |  |  |  | 
2 | O=C(O)[C@H]1CCCN1 [D-proline] | significantly higher effect |  | higher mRNA expression | higher mRNA expression | significantly reduced number | dose-dependently extends the life span
3 | N[C@H](CC(=O)O)C(=O)O [D-aspartic acid] | extends the life span | extended the life span of Drosophila flies in a concentration-dependent manner |  |  |  | 
4 | O=C(O)[C@@H]1CCCN1 [L-proline, reference compound] | no effect |  |  |  |  | 
